The values that follow come from patent US20200190067A1, “PHOTO-SWITCHABLE CHEMICAL INDUCERS OF DIMERIZATION FOR CONTROL OF PROTEIN FUNCTION IN CELLS BY LIGHT” (Max-Planck-Gesellschaft zur Förderung der Wissenschaften …, priority 2017, published 2020).

This data set in a line: UV-Vis absorption spectra. The class given is physicochemical. The following applies: 50 μM dimerizer in PBS buffer (pH 7.4, 0.5% DMSO). The procedure: FIG. 1: UV-Vis absorption spectra of TMP—PC—Cl (black) and 4-CmTMP—PC—Cl (red). A solution of 50 μM of the respective dimerizer in PBS buffer (pH 7.4, 0.5% DMSO) was subjected to UV-Vis absorption analysis (FIG. 1). 0.5% DMSO in PBS was used as the blank.
UV-Vis absorption spectra were recorded using SHIMADZU UV-2401PC UV-Vis Recording Spectrophotometer. A solution of 50 μM of the respective dimerizer in PBS buffer (pH 7.4, 0.5% DMSO) was subjected to UV-Vis absorption analysis (FIG. 1). 0.5% DMSO in PBS was used as the blank.

Each structure is given as a SMILES string.

Regarding `COc1cc(COC(=O)NCCCOCCOCCOCCCNC(=O)COc2c(OC)cc(Cc3cnc(N)nc3N)cc2OC)c([N+](=O)[O-])cc1OCCOCCOCCOCCOCCOCCCCCCCl` [TMP—PC—Cl, 4-((21-Chloro-3,6,9,12,15-pentaoxahenicosyl)oxy)-5-methoxy-2-nitrobenzyl (1-(4-((2,4-diaminopyrimidin-5-yl)methyl)-2,6-dimethoxyphenoxy)-2-oxo-7,10,13-trioxa-3-azahexadecan-16-yl)carbamate], the absorption peak is listed as 348.5 nm.
